Experimental data from US7691969B2, “Isolated GRP94 ligand binding domain polypeptide and nucleic acid encoding same, crystalline form of same, and screening methods employing same” (Duke University, priority 2001, dated 2010).

Columns and labels:
HSP90 [1] = molecular target: HSP90 (Homo sapiens, UniProt P07900); experiment: Conformational analysis by proteolysis (trypsin, SDS-PAGE); format: biochemical
GRP94 [2] = molecular target: T1, GRP94 (Sus scrofa, UniProt Q29092); experiment: Identification of the bis-ANS binding site (photo-crosslinking, Edman sequencing); parameters: species or system porcine
T1 construct: GRP94 was purified from porcine pancreas rough microsomes; from tissue; host or cells: porcine pancreas rough microsomes (lumenal contents)
Protocol: Identification of the bis-ANS binding site. […] Following photocrosslinking, GRP94-bis-ANS complexes were digested with trypsin for one hour at 37° C.
As described in Materials and Methods, GRP94 was combined with an excess of bis-ANS and photo-crosslinked on ice for 15 minutes. GRP94 was subsequently digested with trypsin, the fluorescent peptides purified by HPLC, and the sequence of the labeled peptides determined by Edman sequencing.

GRP94 [3] = molecular target: T1, GRP94; experiment: Far-UV circular dichroism; format: biochemical, porcine; settings: 1 μM GRP94, 10 μM bis-ANS, 2 h
Protocol: Circular Dichroism Measurements. Far-UV CD spectrometry was performed on an AVIV Associates 62DS™ circular dichroism spectrometer (AVIV Associates of Lakewood, N.J.). Samples were analyzed in a 1 mm path length quartz cuvette at 37° C. GRP94 samples (1 μM) were prepared in standard phosphate buffered saline solution as buffer A produced unacceptable dynode voltages in the relevant region of the spectrum. GRP94 was incubated with 10 µM bis-ANS for 2 hours at 37° C. prior to obtaining spectra. Spectra were recorded from 300 to 195 nm. The α-helical content of GRP94 was calculated from the molar ellipticity at 222 nm. See Myers & Jakoby (1975) J Biol Chem 250:3785-3789.

GRP94 [4] = molecular target: T1, GRP94; experiment: Conformational analysis by proteolysis (trypsin, SDS-PAGE); format: biochemical, porcine; settings: 5 μM GRP94, 50 μM bis-ANS, 1 h 37° C.; 0.1% trypsin 30 min
Protocol: Conformational Analysis by Proteolysis. The conformational state of GRP94 was assessed by tryptic digestion of the protein and subsequent SDS-PAGE analysis. […] Samples were then combined with 0.1% trypsin and digested for 30 minutes at 37° C. An equal volume of SDS-PAGE sample buffer was added and the samples were snap frozen in liquid nitrogen. Immediately prior to gel analysis, samples were thawed and boiled for 5 minutes. […] Gels were fixed and stained with Coomassie Blue. For time course experiments, excess free bis-ANS was removed immediately prior to trypsinization by gel filtration on 0.5 ml G-25 SEPHADEX® spin columns.

GRP94 [5] = molecular target: T1, GRP94; experiment: Fluorophore binding to native and heat shocked GRP94 (fluorescence emission); parameters: species or system porcine
From the text: Fluorophore Binding Reactions.
Fluorescence Measurements. […] All spectra were background corrected.
To characterize the structural basis for the heat shock dependent activation of GRP94 activity, the interaction of polarity-sensitive fluorophores with native and heat shocked GRP94 was examined. The three probes tested, Prodan (6-propionyl-2-(dimethylamino)naphthalene), 8-ANS (1,8-anilinonaphthalenesulfonate) and bis-ANS (bis(1,8-anilino-naphthalenesulfonate) are structurally related probes that bind to hydrophobic sites on proteins and undergo substantial fluorescence spectrum changes upon introduction into nonpolar environments, as discussed by Rosen & Weber (1969) Biochemistry 8:3915-3920; Weber & Farris (1979) Biochemistry 18:3075-3078; Takashi et al. (1977) Proc Natl Acad Sci USA 74:2334-2338; Shi et al. (1994) Biochemistry 33:7536-7546. The following experimental protocol was utilized. GRP94 was warmed to 37° C. and either maintained at 37° C. or heat shocked for 15 minutes at 50° C., followed by incubation at 37° C. Subsequently, probe stocks were added to the GRP94 stocks and emission spectra recorded after 30 min at 37° C.
Under the experimental conditions used in this series of experiments, bis-ANS binding to GRP94 was near maximal at a 20-fold molar excess of GRP94 monomer over bis-ANS, with half maximal binding observed at 110 nM GRP94 (FIG. 2B).

GRP94 [6] = molecular target: T1, GRP94; experiment: Native blue electrophoresis (BN-PAGE) of oligomeric state; format: biochemical, porcine; settings: ten-fold molar excess of bis-ANS
Protocol: Native Blue Electrophoresis. The oligomeric state of GRP94 was assayed by blue native polyacrylamide gel electrophoresis (BN-PAGE) as described by Schagger et al. (1994) Anal Biochem 217:220-230. GRP94 was either heat shocked or exposed to a 10-fold molar excess of bis-ANS for the indicated times. Samples were then dissolved in 15% glycerol and loaded onto 5-18% gradient gels with 0.02% Coomassie Brilliant Blue in the cathode buffer. Gels were run at 4° C., stained with Coomassie Blue, de-stained and dried.

GRP94 [7] = molecular target: T1, GRP94; experiment: Citrate synthase thermal aggregation assay (chaperone activity); format: biochemical, porcine; settings: 1 μM GRP94 preincubated 2 h with 10 μM bis-ANS; 0.15 μM citrate synthase, 43° C.
Protocol: Citrate Synthase Aggregation Assays. The effects of GRP94 on the thermal aggregation of citrate synthase were assayed by the methods described by Buchner et al. (1998) Methods Enzymol 290:323-338. Samples containing no protein, or GRP94 (1 μM), were incubated in 40 mM HEPES pH 7.5 for two hours at 37° C. with either 0.2% DMF or 10 µM bis-ANS. The samples were then warmed to 43° C. for five minutes and placed in a spectrofluorometer thermostatted at 43° C. Citrate synthase was then added to 0.15 μM final concentration and the thermal aggregation of the enzyme followed by light scattering. Excitation and emission wavelengths were both 500 nm with 2 nm slit width. The time course of citrate synthase aggregation was followed for 1000 seconds.
To determine if the bis-ANS-dependent conformational changes in GRP94 were of functional significance, the molecular chaperone activities of native, heat shocked and bis-ANS treated GRP94 were evaluated in a thermal aggregation assay, as described by Jakob et al. (1995) J Biol Chem 270:7288-7294 and Buchner et al. (1998) Methods Enzymol 290:323-338. […] Following experimental treatment of the GRP94, reactions were equilibrated at 43° C., citrate synthase then added and aggregation, as represented by light scattering, was measured.

HSP90 [8] = molecular target: HSP90 (Saccharomyces cerevisiae, UniProt P02829); settings: Prodromou et al. (1997); cited from earlier work
GRP94 [9] = molecular target: T1, GRP94; experiment: ATP binding assay ([32P]ATP, nitrocellulose filtration); parameters: species or system porcine; settings: 50 μM [32P]ATP, 1 h on ice
Protocol: (§1) ATP Binding Assay. Six μg of GRP94, BiP, and Hsp90 was incubated with 50 μM […] (1000 μCi/μmol) (Amersham Pharmacia Biotech of Piscataway, N.J.) in buffer B on ice for 1 hour. Nitrocellulose filters (BA85) (Schleicher & Schuell of Keene, N.H.) were individually wet in buffer B before use, and bound versus free [^32P]-ATP was separated by vacuum filtration. Filters were washed with 3×2 mL of ice cold buffer B, placed in 5 mL of scintillation fluid, vortexed, and counted.

BiP = experiment: as above; parameters: species or system porcine; settings: 50 μM [32P]ATP, 1 h on ice
Protocol: as §1

GRP94 [10] = molecular target: T1, GRP94; experiment: Tryptophan fluorescence (tertiary conformational state); format: biochemical, porcine; settings: 50 μM NECA, 50 μM geldanamycin, 2.5 mM ATP or 2.5 mM ADP; 1 h 37° C.
Protocol: Tryptophan Fluorescence. Tryptophan fluorescence measurements were conducted in a FLUOROMAX™ spectrofluorometer (Spex Industries, Inc. of Edison, N.J.) with the slit widths set to 1 nm for both excitation and emission. […] All spectra were corrected by subtraction of buffer or buffer plus ligand samples. GRP94 (50 μg/ml) was incubated in buffer A supplemented with 10 mM Mg(OAc)2 and the following concentrations of ligands for 1 hour at 37° C. […] Samples were then cooled to room temperature, transferred to a quartz cuvette, and the spectra collected.

GRP94 [11] = molecular target: T1, GRP94; experiment: [3H]-NECA competitive displacement assay; format: binding, porcine
Protocol: Where indicated, binding reactions were performed in either buffer C (10 mM Tris, pH 7.5, 50 mM KCl, 5 mM MgCl2, 2 mM DTT, 0.01% NP-40, 20 mM Na2MoO4) or 50 mM Tris, pH 7.5, 10 mM Mg(OAc)2. […] Vacuum filtration was performed with an Amersham Pharmacia Biotech (Piscataway, N.J.) vacuum filtration manifold.
All binding reactions were performed in triplicate and corrected by subtraction of background values, determined in binding reactions lacking GRP94.

T1 sequence (Q29092 22-804): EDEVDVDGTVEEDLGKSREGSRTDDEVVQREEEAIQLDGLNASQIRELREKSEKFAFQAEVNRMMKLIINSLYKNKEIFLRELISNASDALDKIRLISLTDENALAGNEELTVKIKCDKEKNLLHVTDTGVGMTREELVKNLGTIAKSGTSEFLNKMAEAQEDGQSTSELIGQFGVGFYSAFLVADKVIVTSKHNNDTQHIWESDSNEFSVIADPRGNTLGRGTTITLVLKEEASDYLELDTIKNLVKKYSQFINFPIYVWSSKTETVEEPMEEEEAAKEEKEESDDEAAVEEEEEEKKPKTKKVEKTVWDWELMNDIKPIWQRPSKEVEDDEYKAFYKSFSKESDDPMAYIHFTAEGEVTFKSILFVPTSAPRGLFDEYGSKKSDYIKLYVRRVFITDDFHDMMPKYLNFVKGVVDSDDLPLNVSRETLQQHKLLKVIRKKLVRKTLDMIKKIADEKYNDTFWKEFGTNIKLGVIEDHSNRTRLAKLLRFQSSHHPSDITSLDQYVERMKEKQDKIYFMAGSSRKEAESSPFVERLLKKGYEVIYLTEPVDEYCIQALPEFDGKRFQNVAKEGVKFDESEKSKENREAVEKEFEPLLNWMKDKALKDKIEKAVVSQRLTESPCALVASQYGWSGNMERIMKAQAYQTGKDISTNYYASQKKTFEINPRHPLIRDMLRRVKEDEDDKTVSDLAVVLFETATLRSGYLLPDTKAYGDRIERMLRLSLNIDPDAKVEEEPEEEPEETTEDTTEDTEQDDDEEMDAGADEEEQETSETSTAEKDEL
Chain of HSP90 (Saccharomyces cerevisiae, UniProt P02829) (P02829 whole entry): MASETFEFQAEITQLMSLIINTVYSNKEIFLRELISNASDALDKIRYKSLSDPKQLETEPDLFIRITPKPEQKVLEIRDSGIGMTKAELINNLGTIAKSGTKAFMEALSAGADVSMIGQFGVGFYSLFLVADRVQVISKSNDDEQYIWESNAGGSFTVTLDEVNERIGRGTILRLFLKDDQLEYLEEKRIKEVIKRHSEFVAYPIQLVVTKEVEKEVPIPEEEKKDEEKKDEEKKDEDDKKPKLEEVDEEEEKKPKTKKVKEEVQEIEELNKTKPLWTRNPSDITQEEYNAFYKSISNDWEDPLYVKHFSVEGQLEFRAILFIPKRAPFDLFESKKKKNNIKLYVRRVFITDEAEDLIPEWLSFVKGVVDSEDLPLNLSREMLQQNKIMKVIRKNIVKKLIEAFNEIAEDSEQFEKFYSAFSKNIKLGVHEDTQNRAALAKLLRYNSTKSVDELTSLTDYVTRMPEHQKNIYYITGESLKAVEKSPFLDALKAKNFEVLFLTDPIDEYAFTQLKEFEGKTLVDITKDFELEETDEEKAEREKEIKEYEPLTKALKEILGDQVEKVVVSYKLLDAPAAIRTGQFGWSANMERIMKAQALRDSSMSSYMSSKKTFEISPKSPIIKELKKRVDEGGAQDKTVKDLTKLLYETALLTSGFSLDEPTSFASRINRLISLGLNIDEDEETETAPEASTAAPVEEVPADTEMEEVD

Row | secondary structure of GRP94 (CD spectra) (GRP94 [3]) | Kd (GRP94 [5]; fixed 50 nM bis-ANS, increasing GRP94, excitation 393 nm, emission 475 nm, read-out: half maximal binding of bis-ANS to heat shocked GRP94 (GRP94 concentration)) | molar excess of GRP94 monomer over bis-ANS at near maximal binding (GRP94 [5]; heat shocked GRP94) | molar excess required for 50% inhibition of [3H]-NECA binding (GRP94 [11]; 20 nM [3H]-NECA) | nucleoside base specificity: binding to GRP94 by [3H]-NECA displacement (GRP94 [11]; competitors at 50 μM) | relative affinities for GRP94 in presence of Mg2+ (GRP94 [11]; excess Mg2+) | efficacy of competing NECA binding, ATP relative to ADP (GRP94 [11]; no excess Mg2+) | Compound | trypsin proteolysis pattern of HSP90 (HSP90 [1]) | site of bis-ANS binding to GRP94 (labeled peptide) (GRP94 [2]) | trypsin proteolysis pattern of GRP94 (GRP94 [4]) | agonist activity for GRP94 activation (GRP94 [5]) | fluorophore binding to native versus heat shocked GRP94 (fluorescence emission) (GRP94 [5]; 0.5 μM GRP94, 5 μM probe, 37° C.) | quaternary structure (oligomerization) of GRP94 (GRP94 [6]) | thermal aggregation of citrate synthase in presence of treated GRP94 (GRP94 [7]) | Kd (HSP90 [8]) | ATP binding (GRP94 [9]) | ATP binding (BiP) | change of GRP94 tryptophan fluorescence (GRP94 [10]) | effect of excess Mg2+ on binding to GRP94 (GRP94 [11]; 10 mM Mg(OAc)2 versus nominal magnesium)
1 | does not alter GRP94 secondary structure | 0.11 µM | 20 -fold | – | – | – | – | 4,4′-dianilino-1,1-binaphthyl-5,5-disulfonic acid [bis-ANS] | Essentially identical proteolysis patterns were observed following either heat shock or bis-ANS treatment of HSP90 | mapped to residues 271-281 of the N-terminal domain of GRP94 | substantially reduced recovery of the prominent proteolysis products | both an agonist for GRP94 activation as well as an indicator for the relative state of activation | a level of fluorophore binding similar to that seen with heat shocked GRP94 was observed | induces changes in the quaternary structure of GRP94 that mimic those seen upon heat shock | no thermal aggregation of citrate synthase was detectable | – | – | – | – | –
2 | – | – | – | ~1000 -fold molar excess | GRP94 could bind both ATP and deoxyATP | nearly identical relative affinities | eight-fold higher efficacy than ADP | Nc1ncnc2c1ncn2[C@@H]1O[C@H](COP(=O)(O)OP(=O)(O)OP(=O)(O)O)[C@@H](O)[C@H]1O [ATP] | – | – | – | – | – | – | – | 132 µM | no ATP binding was observed to Hsp90 or GRP94 | displayed the expected ATP binding activity | the tryptophan fluorescence was decreased | markedly stimulated the binding of ATP, ADP and AMP
